Results taken from US4620871A (priority 1980, dated 1986).
Read-outs that look alike come from different tables or passages of the source.

Key:
[1] = system: Pinto bean; test: Stimulation of membrane activity (nitrate uptake), Pinto bean (Example 25); type: in vivo; conditions: for Protein nitrogen / Total nitrogen: 2 weeks; for Protein nitrogen / Total nitrogen / Protein nitrogen, stimulation / Protein nitrogen content in % of the total nitrogen content: zeatin 20, kinetin/benzyladenine 30, others 200 ppm; for Protein nitrogen: control 2.4; for Total nitrogen: control 3.8; for Total nitrogen, stimulation: 200 ppm; for Protein nitrogen content in % of the total nitrogen content: control 63
Protocol: The tests were performed on Pinto bean. The plants were treated with solutions of an endogeneous cytokinin (zeatin), synthetic cytokinins and membraneactive regulators according to the invention, respectively, and the leaves of the plants were analyzed 2 weeks after the treatment.

[2] = system: Alfalfa; test: Total and protein nitrogen content of alfalfa, field (Example 26); type: in vivo; conditions: for Protein nitrogen content: control 2.25; for Total nitrogen content: control 3.36
Protocol: Alfalfa was treated with the compositions according to the invention under large-parcel field conditions. The tests were performed in fourfold replications on parcels 1 hectare in area, each. The oily compositions according to the invention were diluted with water and then sprayed onto the test parcels either once or twice.
The parcels were sprayed first when the soil was already covered with sprouting alfalfa shoots. The second treatment, if any, was performed two weeks later. The dose applied in all of the treatments was 2 kg/ha.
The total nitrogen content and the protein nitrogen content of alfalfa, harvested from the untreated, once-treated and twice-treated parcels, was measured.

[3] = system: Egri leanyka vine variety; test: Berry yield and sugar content of vine, Egri leanyka (Example 33); type: in vivo; conditions: for Berry yield: 3 x 2 kg/ha, control 151.15; for Sugar content: control 16.7; for Sugar yield: control 18.93
Protocol: Vine stands were sprayed with the compositions according to the invention to examine their effects exerted on the berry yield and sugar content. The compositions, diluted with water, were sprayed three times onto the plants. The first treatment was performed prior to flowering, the second one three weeks later, and the third one six weeks after the first one. The dose applied was 2 kg/ha in each of the treatments.
Comparative tests were also performed with commonly used growth regulating compositions, i.e. CCC (chlorocholine chloride), Ethrel (or Etefon; 2-chloroethylphosphonic acid) and Nevirol (N-phenyl-phthalaiminic acid). The results were compared to those observed with the untreated controls.
Two vine varieties, Pannonia and Egri leanyka, were involved in the tests.

[4] = system: Mexican 226 K wheat variety; test: Nitrogen contents of grains of Mexican 226 K wheat (Example 31); type: in vivo; conditions: for Protein nitrogen content: control 1.61; for Total nitrogen content: seed 2 kg/ha + soil 2 kg/ha, control 2.12
Protocol: Two wheat varieties, Libelulla and Mexican 226 K, were utilized in the tests performed under large-parcel field conditions. The sowing seeds were coated with the compositions of the invention according to the wet powder seed dressing technique; a dosis of 2 kg/ha was applied.
The soil was also treated with the compositions according to the invention directly before sowing. A dose of 2 kg/ha was applied.
The grain yields of the wheat varieties, harvested from the treated and control parcels, were measured, and the total nitrogen content and protein nitrogen content of the grains were determined.

[5] = system: leaves of Pinto bean; test: Stimulation of photolytic activity, HTO, Pinto bean (Example 23); conditions: 18 hours, zeatin 20, kinetin/benzyladenine 30, others 200 ppm; for Photolytic activity: control 7.64
Protocol: The stimulating effects of an endogeneous cytokinin (zeatin), synthetic cytokinins (kinetin, benzyladenine) and the cytokinin-like regulators according to the invention exerted on the photolytic activity connected to the decomposition of HTO were examined on leaves of Pinto bean. The leaf discs were floated for 18 hours on solutions of the substances under examination, and then exposed to a radioactivity of 200 μCi/100 ml for one hour to effect photolysis of HTO.

[6] = system: Wheat; test: Stimulation of nutrient uptake, labelled phosphate, wheat (Example 24); conditions: for labelled phosphate in nucleic acid fraction: 200 ppm, control 17.4
Protocol: (§1) The compositions according to the invention were diluted with distilled water to an active agent concentration of 200 ppm, and leaf segments of wheat, maize and pea, weighing 200 mg each, were treated with the solutions. Thereafter the treated green leaf segments were treated for 0.5 hours with a solution of labelled phosphate ions (radioactivity: 30 μCi/50 ml). After this exposition period the treated leaf segments and the untreated controls were processed in a manner known per se to isolate the nucleic acid fractions, and the isolated nucleic acid fractions were dissolved in 6 n ammonium hydroxide solution. Stock solutions were prepared from the resulting solutions, and the amount of labelled phosphate ions present in the stock solutions were measured by liquid scintillation.

[7] = system: sugar beet; test: Crop yield and sugar content of sugar beet (Example 32); type: in vivo; conditions: for Crop yield: 1 kg/ha seed + 2 x 2 kg/ha, control 541; for Sugar content: after harvesting, control 16.0; for Sugar yield: control 87.56; for Sugar yield, increase: in vivo
Protocol: Glomeruli of sugar beet were treated with the compositions according to the invention (a dose corresponding to 1 kg/ha was applied), and the glomeruli were sown into large parcels. The plants emerged were sprayed twice with the compositions according to the invention, applying a dose of 2 kg/ha, each.
The sugar contents of the plants grown on the treated and control parcels were examined in August.
The crop yield and the sugar content were also determined after harvesting.

[8] = system: Mixed soybean/sunflower cultures; test: Nitrogen content of mixed soybean/sunflower culture (Example 27); type: in vivo; conditions: 3 x 2 kg/ha; for Protein nitrogen content: control 2.27; for Total nitrogen content: control 2.56; for Protein nitrogen content in % of the total nitrogen content: control 65.2
Protocol: Mixed soybean/sunflower cultures, to be harvested when green, were treated with the compositions according to the invention under large-parcel field conditions. The tests were performed in fourfold replications on parcels 1 hectare in area, each. The compositions were diluted with water and sprayed onto the parcels three times, in doses of 2 kg/ha, each. The first treatment was performed when the soil was already completely covered by green plants, the second treatment was performed two weeks later, and then the third after two additional weeks. The green plants were harvested from the treated and control parcels, and the total nitrogen content and protein nitrogen content were determined.

[9] = system: soybean leaf segments; test: Stimulation of the protein level of soybean, glycine-14C incorporation (Example 18); conditions: 24 hours; for Radioactivity: 200 ppm, control 11.9
Protocol: The active agent to be tested was dissolved in distilled water to form a 200 ppm solution, and soybean leaf segments, weighing 200 mg, were floated on the surface of the solution for 24 hours. In the control test leaf segments, weighing 200 mg, were floated on the surface of distilled water.
The leaf segments were washed with distilled water, and then treated for 3 hours with 20 ml of a solution containing labelled amino acid (glycine-^14 C; activity: 2 μCi). After this exposition period the leaf segments were washed with an aboundant amount of water, and the protein content of the leaf segments was isolated in a manner known per se. Stock solution was prepared from the isolated protein, and the specific radioactivity of the solution was determined by liquid scintillation.

[10] = system: Pea; test: Stimulation of nutrient uptake, labelled phosphate, pea (Example 24); conditions: for labelled phosphate in nucleic acid fraction: 200 ppm, control 23.3
Protocol: as §1

SMILES | Protein nitrogen [1] | Total nitrogen [1] | Total nitrogen, stimulation [1] | Protein nitrogen, stimulation [1] | Protein nitrogen content in % of the total nitrogen content [1] | Protein nitrogen content, stimulation ([2]; 1 treatment, 2 kg/ha) | Total nitrogen content, stimulation ([2]; 1 treatment, 2 kg/ha) | Protein nitrogen content ([2]; 1 treatment, 2 kg/ha) | Total nitrogen content ([2]; 1 treatment, 2 kg/ha) | Berry yield [3] | Sugar content [3] | Sugar yield [3] | Protein nitrogen content, stimulation [4] | Total nitrogen content, stimulation [4] | Protein nitrogen content [4] | Total nitrogen content [4] | Stimulation [5] | Photolytic activity [5] | labelled phosphate in nucleic acid fraction [6] | Crop yield [7] | other results
CCC[n+]1c[nH]c2ccccc21.[Br-] [N--(n-Propyl)-benzimidazolium bromide, N-(n-propyl)-benzimidazolium bromide] | 4.4 % of dry weight | 5.3 % of dry weight | 39.4% | 83.3% | 83% | 8% | 4% | 2.48 % of dry substance | 3.51 % of dry substance | 176.92 q/ha | 16.7% | 22.16 q/ha | 8.0% | 1.0% | 1.74 % of dry substance | 2.15 % of dry substance | 84% | 14.08 dpm/mg of glucose | 22.8 1000 cpm/g | 877 q/ha | Protein nitrogen content, stimulation ([2]; 2 treatments, 2 kg/ha each): 22%; Total nitrogen content, stimulation ([2]; 2 treatments, 2 kg/ha each): 13%; Protein nitrogen content ([2]; 2 treatments, 2 kg/ha each): 2.75 % of dry substance; Total nitrogen content ([2]; 2 treatments, 2 kg/ha each): 3.91 % of dry substance; Berry yield, increase [3]: 17.0%; Sugar yield, increase [3]: 17.0%; influence on sugar content, in words [3]: did not influence the sugar content; Berry yield, increase ([3]; listed as N-(n-propyl)-benzimidazolium bromide): 17%; Sugar content [7]: 17.05%; Sugar yield [7]: 149.49 q/ha; Sugar yield, increase [7]: 70%; Protein nitrogen content, stimulation [8]: 21.1%; Total nitrogen content, stimulation [8]: 9.7%; Protein nitrogen content [8]: 2.75 % of dry weight; Total nitrogen content [8]: 2.80 % of dry weight; Protein nitrogen content in % of the total nitrogen content [8]: 98.9%; Radioactivity [9]: 13.7 mu Ci/100 mg; labelled phosphate in nucleic acid fraction [10]: 32.7 1000 cpm/g
N=C(N)N.N=C(N)N.Oc1nnc(O)c2ccccc12 [1,4-dihydroxyphthalazine diguanidine salt] | 4.1 % of dry weight | 4.8 % of dry weight | 26.3% | 70.8% | 85% | 54% | 24% | 3.48 % of dry substance | 4.17 % of dry substance | 124.23 q/ha | 16.8% | 15.65 q/ha | 28.5% | 5.6% | 2.07 % of dry substance | 2.81 % of dry substance | 79% | 13.72 dpm/mg of glucose | 29.3 1000 cpm/g | 608 q/ha | activation at 200 ppm ([6]; Triticum aestivum): 68.5%; Sugar content [7]: 16.45%; Sugar yield [7]: 100.01 q/ha; Sugar yield, increase [7]: 14%; Protein nitrogen content, stimulation [8]: 39.6%; Total nitrogen content, stimulation [8]: 34.7%; Protein nitrogen content [8]: 3.17 % of dry weight; Total nitrogen content [8]: 3.45 % of dry weight; Protein nitrogen content in % of the total nitrogen content [8]: 94.8%; Radioactivity [9]: 15.5 mu Ci/100 mg; activation at 200 ppm ([9]; Glycine max): 30.2%; activation at 200 ppm [10]: 51.7%; labelled phosphate in nucleic acid fraction [10]: 38.4 1000 cpm/g
